Structures are written as SMILES. Entries after “also recorded” stand apart in the source; their conditions may differ.

One test relates to myotubes. The test is described as follows: Differentiated (starved) cultured myotubes: Atrogin1 expression and diameter. The note with it: starved (24 hr) or non-starved myotubes; PGE2 10 ng/ml, SW 1 μM; listed as SW. Type of test: cell-based, mouse. As for the experimental part:
For myotubes we performed fixation using 4% PFA, blocking and permeabilization using PBS/1% BSA/0.1% Triton X-100 and staining with primary antibodies anti-MyHC (Thermo Fisher Scientific, catalog #14-6503-82, clone MF-20, 1:500) and then with AlexaFluor secondary Antibodies (Jackson ImmunoResearch Laboratories, 1:500). We counterstained nuclei with DAPI (Invitrogen).
Primary myoblasts were grown in myogenic cell culture medium containing DMEM/F10 (50:50), 15% FBS, 2.5 ng ml-1 fibroblast growth factor-2 and 1% penicillin-streptomycin. For differentiation experiments, confluent myoblasts were grown in medium containing 5% horse serum, DMEM. […] Myoblasts were isolated from EP4^fl/fl mice and received either a mCherry/Cre lentivirus or a mock infection as previously described (5).
For cultured myotubes we performed fixation using 4% PFA, blocking and permeabilization using PBS/1% BSA/0.1% Triton X-100 and staining with primary antibodies anti-MYH (Thermo Fisher Scientific, catalog #14-6503-82, clone MF-20, 1:500) and then with AlexaFluor secondary Antibodies (Jackson ImmunoResearch Laboratories, 1:500). We counterstained nuclei with DAPI (Invitrogen). We acquired images using the KEYENCE BZ-X700 all-in-one fluorescence microscope (Keyence) with 20x/0.75 N.A. objectives. We analyzed the fiber area using the Keyence Advanced Analysis Software. For fiber area the entire maximum cross-sectional area of the muscle was quantified or at least 10 fields of LAMININ or WGA stained myofiber cross-sections encompassing over 400 myofibers were captured for each mouse as above. For fiber typing analysis, the MATLAB application SMASH-Semi-Automatic Muscle Analysis Using Segmentation of Histology, was used as previously described (12). Data analyses were blinded. The researchers performing the imaging acquisition and scoring were unaware of treatment condition given to sample groups analyzed.
Primary murine myoblasts were grown in myogenic cell culture medium containing DMEM/F10 (50:50), 15% FBS, 2.5 ng ml^−1 fibroblast growth factor-2 and 1% penicillin-streptomycin. […] For differentiation experiments, confluent myoblasts were grown in medium containing 5% horse serum, DMEM.

For the next test, the system named is myofibers. Briefly: Myofiber cross-sectional area and fiber typing by immunofluorescence. The format is in vivo, mouse. The conditions noted are these: aged mice, 1 month. As for the experimental part: We collected and prepared recipient Tibialis anterior (TA) or gastrocnemius (GA) muscle tissues for histology as previously described (5). We fixed transverse sections from muscles using 4% PFA, blocked and permeabilized using PBS/1% BSA/0.1% Triton X-100 and incubated with anti-LAMININ (Millipore, clone A5, catalog #05-206, 1:200) and then with AlexaFluor secondary Antibodies (Jackson ImmunoResearch Laboratories, 1:200) or wheat germ agglutinin-Alexa 647 conjugate (WGA, Thermo Fisher Scientific). We counterstained nuclei with DAPI (Invitrogen).
We acquired images on a Zeiss 510 laser scanning confocal microscope (Carl Zeiss Microimaging) with 40x/0.9N.A. objective to capture multiple consecutive focal planes or using the KEYENCE BZ-X700 all-in-one fluorescence microscope (Keyence) with 20x/0.75 N.A. objectives. We analyzed the myofiber area using the Keyence Advanced Analysis Software. For cross sectional area the maximum cross sectional area of the muscle was quantified or at least 10 fields of LAMININ-stained myofiber cross-sections encompassing over 400 myofibers were captured for each mouse as above. […] The researchers performing the imaging acquisition and scoring were unaware of treatment condition given to sample groups analyzed. […]
Images were acquired using KEYENCE BZ-X700 all in one fluorescence microscope with 20x/0.75 NA. objectives and individual fields were stitched and analyzed using Keyence Advanced Analysis Software.
For cultured myotubes we performed fixation using 4% PFA, blocking and permeabilization using PBS/1% BSA/0.1% Triton X-100 and staining with primary antibodies anti-MYH (Thermo Fisher Scientific, catalog #14-6503-82, clone MF-20, 1:500) and then with AlexaFluor secondary Antibodies (Jackson ImmunoResearch Laboratories, 1:500). […] We acquired images using the KEYENCE BZ-X700 all-in-one fluorescence microscope (Keyence) with 20x/0.75 N.A. objectives. We analyzed the fiber area using the Keyence Advanced Analysis Software. […] The researchers performing the imaging acquisition and scoring were unaware of treatment condition given to sample groups analyzed.

Take `CCCC[S+]([O-])c1sc2nc(-c3cccs3)cc(-c3ccccc3)c2c1N` (stereo not shown) [SW033291, 2-(butylsulfinyl)-4-phenyl-6-(thiophen-2-yl)thieno[2,3-b]pyridin-3-amine]: the myotube diameter entry in the test on myotubes is “no increase; also recorded: no effect”. Besides, in the test with myofibers, the “cross-sectional area of glycolytic (type IIb) fibers” value is “increase” and the “cross-sectional area of oxidative (type IIa) fibers” value is recorded as “increase”. Also, the myofiber cross-sectional area entry with myofibers (daily i.p., listed as SW) was “larger; also recorded: significantly augmented”.

The values are drawn from patent US20220304992A1, “METHODS OF REJUVENATING AGED TISSUE BY INHIBITING 15-HYDROXYPROSTAGLANDIN DEHYDROGENASE (15-PGDH)” (The Board of Trustees of the Leland Stanford Junior …, priority 2019, published 2022).
